{
  "source": "patent US10905736B2",
  "about": "“Ezetimibe-associated ApoA-I mimetic peptides showing enhanced synergism” (The Regents of the University of California, priority 2016, dated 2021)",
  "key": {"LDLR null mice [1]": {"tested_on": "LDLR null mice", "test": "Plasma lysophosphatidylcholine (LysoPC) levels in LDLR null mice fed Western diet for two weeks", "format": "in vivo, mouse", "details": "female LDLR null mice age 4-7 months, WD two weeks, Tg6F 0.06% by weight, Ezetimibe 10 mg/kg/day", "method": "After feeding the diets for two weeks the mice were bled and plasma lipid levels, plasma levels of lysophosphatidylcholine (LysoPC), and plasma levels of Serum Amyloid A (SAA) were determined as described in Example 3 Methods. Panel A) Plasma total cholesterol levels. Panel B) The decrease in plasma cholesterol compared to WD for each treatment. Panel C) Plasma triglyceride levels. Panel D) The decrease in plasma triglycerides compared to WD for each treatment. Panel E) Plasma HDL-Cholesterol levels. Panel F) The Increase in plasma HDL-Cholesterol compared to WD for each treatment. Panel G) Plasma LysoPC 18:0 levels. Panel H) The decrease in plasma LysoPC 18:0 levels compared to WD for each treatment. Panel I) Plasma LysoPC 18:1 levels. Panel J) The decrease in plasma LysoPC 18:1 levels compared to WD for each treatment. Panel K) Plasma LysoPC 20:4 levels. Panel L) The decrease in plasma LysoPC 20:4 levels compared to WD for each treatment. Panel M) Plasma SAA levels. Panel N) The decrease in plasma SAA levels compared to WD for each treatment. The data shown are Mean±SEM. NS=Not significant.\nIn experiments in which Tg6F or EV or Ezetimibe were administered as single agents, the EV or Tg6F concentrate was added to WD at 0.06% by weight or Ezetimibe was added to WD to give a final dose of 10 mg/kg body weight/day. The EV or Tg6F concentrate or Ezetimibe was mixed into the diets as described (Chattopadhyay et al. (2015) Pharma. Res. Per. 3: e00154). In experiments in which the EV or Tg6F concentrates and Ezetimibe were both added to WD, each was added separately to WD at the same dose as used for the single agents, and each was mixed into the diet as described (Id.). […]\nPlasma lipids, and serum amyloid A (SAA) levels were determined and LC-MS/MS was performed as described (Navab et al. (2012) J. Lipid Res. 53: 437-446; Chattopadhyay et al. (2016) J. Lipid Res. 57: 832-847; Chattopadhyay et al. (2015) Pharma. Res. Per. 3: e00154). […]"}, "LDLR null mice [2]": {"tested_on": "LDLR null mice", "test": "Plasma Serum Amyloid A (SAA) levels in LDLR null mice fed Western diet for two weeks", "format": "in vivo, mouse", "details": "statement over the experiments of Example 3 (single agents four out of four, Combined Formulation three out four, Novel Method three out three experiments)", "method": "The plasma from the mice in FIG. 1 was analyzed for SAA as described as described (see, e.g., Chattopadhyay et al. (2015) Pharma. Res. Per. 3: e00154; Chattopadhyay et al. (2016) J. Lipid. Res. 57: 832-847).\nFemale LDLR null mice age 5-8 months (n=20 per group) were fed standard mouse chow (Chow) or a Western diet high in cholesterol and fat (WD) or were fed WD+0.06% by weight of a freeze-dried concentrate of transgenic tomatoes expressing the apoA-I mimetic peptide 6F, which was prepared as previously described (see, e.g., Chattopadhyay et al. (2015) Pharma. Res. Per. 3: e00154; Chattopadhyay et al. (2016) J. Lipid Res. 57: 832-847; PCT Pub. Nos: WO 2013/148214 (PCT/US2013/031037), WO 2015/175968 (PCT/US2015/031134)) (Tg6F), or the mice were fed WD with Ezetimibe added to give a daily dose of 10 mg/kg body weight/day (WD+Ezetimibe), or the mice were fed WD with Tg6F added at 0.06% by weight plus Ezetimibe (each added separately to the diet) to give a daily dose of Ezetimibe of 10 mg/kg body weight; the Tg6F and Ezetimibe were mixed into WD as described previously (Chattopadhyay et al. (2016) J. Lipid. […] After feeding the diets for two weeks, the mice were bled and total plasma cholesterol levels were determined as described (Id.). […]"}},
  "note": "“Also recorded” adds a separate entry of the source.",
  "data": [
    {"smiles": "O=C1[C@H](CC[C@H](O)c2ccc(F)cc2)[C@@H](c2ccc(O)cc2)N1c1ccc(F)cc1", "note": "[Ezetimibe, (3R,4S)-1-(4-fluorophenyl)-3-[(3S)-3-(4-fluorophenyl)-3-hydroxypropyl]-4-(4-hydroxyphenyl)azetidin-2-one]", "values": [
      {"measurement": "plasma LysoPC 18:0 levels", "setting": "LDLR null mice [1]; FIG. 16 G-H", "value": "failed to significantly alter plasma levels of LysoPC 18:0"},
      {"measurement": "plasma LysoPC 18:1 levels", "setting": "LDLR null mice [1]; FIG. 16 I-J", "value": "significantly decreased plasma levels of LysoPC 18:1"},
      {"measurement": "plasma LysoPC 20:4 levels", "setting": "LDLR null mice [1]; FIG. 16 K-L", "value": "significantly reduced plasma levels of LysoPC 20:4"},
      {"measurement": "plasma SAA levels", "setting": "LDLR null mice [2]", "value": "equally effective; also recorded: significantly decreased the levels"}
    ]}
  ]
}
